# From ChEMBL document CHEMBL4308862, “Discovery of a novel azetidine scaffold for colony stimulating factor-1 receptor (CSF-1R) Type II inhibitors by the use of docking models” (Bioorg Med Chem Lett, 2019)
# Target: Macrophage colony-stimulating factor 1 receptor (Homo sapiens, UniProt P07333)
# Assay: Inhibition of human CSF1R tyrosine kinase domain (538 to 972 residues) using Poly(Glu, Tyr)-biotinylated peptide as substrate preincubated for 5 mins followed by substrate addition and measured after 10 mins by HTRF assay
# Macrophage colony-stimulating factor 1 receptor, sequence (P07333 whole entry, the tested form may be a part): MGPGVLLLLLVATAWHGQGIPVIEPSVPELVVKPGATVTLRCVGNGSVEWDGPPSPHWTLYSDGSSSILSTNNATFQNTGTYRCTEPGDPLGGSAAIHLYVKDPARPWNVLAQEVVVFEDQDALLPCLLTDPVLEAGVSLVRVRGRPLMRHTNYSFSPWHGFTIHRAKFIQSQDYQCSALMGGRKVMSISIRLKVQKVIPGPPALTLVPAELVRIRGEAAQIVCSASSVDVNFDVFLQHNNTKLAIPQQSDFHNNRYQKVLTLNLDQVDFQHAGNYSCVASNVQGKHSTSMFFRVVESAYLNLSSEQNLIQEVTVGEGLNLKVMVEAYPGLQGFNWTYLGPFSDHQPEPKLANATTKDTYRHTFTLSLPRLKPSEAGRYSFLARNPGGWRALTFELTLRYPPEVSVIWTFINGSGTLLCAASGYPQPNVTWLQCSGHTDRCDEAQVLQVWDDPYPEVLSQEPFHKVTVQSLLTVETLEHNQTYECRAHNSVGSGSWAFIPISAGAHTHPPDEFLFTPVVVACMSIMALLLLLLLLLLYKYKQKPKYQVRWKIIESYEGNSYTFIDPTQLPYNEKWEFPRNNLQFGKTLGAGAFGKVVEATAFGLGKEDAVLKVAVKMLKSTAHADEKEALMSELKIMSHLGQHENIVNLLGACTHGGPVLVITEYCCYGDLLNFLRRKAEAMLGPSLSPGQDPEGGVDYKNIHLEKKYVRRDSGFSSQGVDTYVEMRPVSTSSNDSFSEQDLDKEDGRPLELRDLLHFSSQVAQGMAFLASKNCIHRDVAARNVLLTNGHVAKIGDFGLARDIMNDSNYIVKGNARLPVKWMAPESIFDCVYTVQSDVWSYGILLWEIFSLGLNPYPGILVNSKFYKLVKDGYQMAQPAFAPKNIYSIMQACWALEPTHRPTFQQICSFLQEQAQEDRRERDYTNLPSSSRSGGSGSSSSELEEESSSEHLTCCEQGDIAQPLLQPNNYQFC
row,IC50 [µM],Structure (SMILES)
1,> 3,CCc1ccc(COc2ccc(C3CN(Cc4ccccn4)C3)cc2OC)cc1
2,> 3,CCc1ccc(COc2ccc(C3CN(Cc4cccnc4)C3)cc2OC)cc1
3,> 3,CCc1ccc(COc2ccc(C3CN(c4ccccn4)C3)cc2OC)cc1
